According to the NIST ThermoML archive (doi:10.1021/je201102x):
Numbers after ± are expanded uncertainties.

Key:
[1] = refractive index (Na D-line) (dimensionless); settings: 293.15 K; 101.33 kPa; Liquid; Standard Abbe refractometry
[2] = 101.33 kPa, Liquid, Vibrating tube method

SMILES	refractive index [1]	mass density ([2]; 293.15 K) [kg/m3]	mass density ([2]; 298.15 K) [kg/m3]	mass density ([2]; 303.15 K) [kg/m3]	mass density ([2]; 313.15 K) [kg/m3]	mass density ([2]; 323.15 K) [kg/m3]	mass density ([2]; 333.15 K) [kg/m3]
CCC(C)(C)O [2-methylbutan-2-ol]	1.4016 ± 0.0008	808.98 ± 0.14	804.39 ± 0.15	799.75 ± 0.15	790.27 ± 0.15	780.46 ± 0.16	770.27 ± 0.16
CC(C)CO [2-methyl-1-propanol]	1.3929 ± 0.0008	801.99 ± 0.24	798.13 ± 0.24	794.24 ± 0.24	786.28 ± 0.24	778.09 ± 0.24	769.6 ± 0.24

The next lines start with the values.

refractive index [1]	mass density ([2]; 293.15 K) [kg/m3]	mass density ([2]; 298.15 K) [kg/m3]	mass density ([2]; 303.15 K) [kg/m3]	mass density ([2]; 313.15 K) [kg/m3]	mass density ([2]; 323.15 K) [kg/m3]	mass density ([2]; 333.15 K) [kg/m3]	SMILES
1.3835 ± 0.0008	993.56 ± 0.09	988.15 ± 0.1	982.75 ± 0.1	971.96 ± 0.1	961.16 ± 0.11	950.35 ± 0.11	CCC(=O)O [propanoic acid]
1.3943 ± 0.0008	806.75 ± 0.24	802.62 ± 0.24	798.43 ± 0.24	789.75 ± 0.24	780.65 ± 0.24	771.1 ± 0.24	CCC(C)O (stereo not given) [butan-2-ol]
1.3687 ± 0.0008	1049.31 ± 0.08	1043.65 ± 0.08	1037.99 ± 0.07	1026.68 ± 0.07	1015.36 ± 0.07	1004.01 ± 0.07	CC(=O)O [acetic acid]
